Results from ChEMBL document CHEMBL5584224, “Recent advances in c-Met-based dual inhibitors in the treatment of cancers” (Eur J Med Chem, 2024).

Legend:
[1] = molecular target: Hepatocyte growth factor receptor (Homo sapiens, UniProt P08581)
Description: Inhibition of c-MET (unknown origin)

HCC827 = assay: Antiproliferative activity against human HCC827 cells; format: functional, cell-based
[2] = molecular target: ALK tyrosine kinase receptor (Homo sapiens, UniProt Q9UM73); assay: Inhibition of ALK (unknown origin)
NCI-H1975 = assay: Antiproliferative activity against human NCI-H1975 cells assessed as reduction in cell viability incubated for 48 hrs by MTT assay; format: functional, cell-based; conditions: NCI-H1975, 48 h
A-431 = assay: Antiproliferative activity against human A-431 cells assessed as reduction in cell viability incubated for 24 hrs by MTT assay; format: functional, cell-based; conditions: A-431, 24 h

Sequence of ALK tyrosine kinase receptor (Q9UM73 whole entry): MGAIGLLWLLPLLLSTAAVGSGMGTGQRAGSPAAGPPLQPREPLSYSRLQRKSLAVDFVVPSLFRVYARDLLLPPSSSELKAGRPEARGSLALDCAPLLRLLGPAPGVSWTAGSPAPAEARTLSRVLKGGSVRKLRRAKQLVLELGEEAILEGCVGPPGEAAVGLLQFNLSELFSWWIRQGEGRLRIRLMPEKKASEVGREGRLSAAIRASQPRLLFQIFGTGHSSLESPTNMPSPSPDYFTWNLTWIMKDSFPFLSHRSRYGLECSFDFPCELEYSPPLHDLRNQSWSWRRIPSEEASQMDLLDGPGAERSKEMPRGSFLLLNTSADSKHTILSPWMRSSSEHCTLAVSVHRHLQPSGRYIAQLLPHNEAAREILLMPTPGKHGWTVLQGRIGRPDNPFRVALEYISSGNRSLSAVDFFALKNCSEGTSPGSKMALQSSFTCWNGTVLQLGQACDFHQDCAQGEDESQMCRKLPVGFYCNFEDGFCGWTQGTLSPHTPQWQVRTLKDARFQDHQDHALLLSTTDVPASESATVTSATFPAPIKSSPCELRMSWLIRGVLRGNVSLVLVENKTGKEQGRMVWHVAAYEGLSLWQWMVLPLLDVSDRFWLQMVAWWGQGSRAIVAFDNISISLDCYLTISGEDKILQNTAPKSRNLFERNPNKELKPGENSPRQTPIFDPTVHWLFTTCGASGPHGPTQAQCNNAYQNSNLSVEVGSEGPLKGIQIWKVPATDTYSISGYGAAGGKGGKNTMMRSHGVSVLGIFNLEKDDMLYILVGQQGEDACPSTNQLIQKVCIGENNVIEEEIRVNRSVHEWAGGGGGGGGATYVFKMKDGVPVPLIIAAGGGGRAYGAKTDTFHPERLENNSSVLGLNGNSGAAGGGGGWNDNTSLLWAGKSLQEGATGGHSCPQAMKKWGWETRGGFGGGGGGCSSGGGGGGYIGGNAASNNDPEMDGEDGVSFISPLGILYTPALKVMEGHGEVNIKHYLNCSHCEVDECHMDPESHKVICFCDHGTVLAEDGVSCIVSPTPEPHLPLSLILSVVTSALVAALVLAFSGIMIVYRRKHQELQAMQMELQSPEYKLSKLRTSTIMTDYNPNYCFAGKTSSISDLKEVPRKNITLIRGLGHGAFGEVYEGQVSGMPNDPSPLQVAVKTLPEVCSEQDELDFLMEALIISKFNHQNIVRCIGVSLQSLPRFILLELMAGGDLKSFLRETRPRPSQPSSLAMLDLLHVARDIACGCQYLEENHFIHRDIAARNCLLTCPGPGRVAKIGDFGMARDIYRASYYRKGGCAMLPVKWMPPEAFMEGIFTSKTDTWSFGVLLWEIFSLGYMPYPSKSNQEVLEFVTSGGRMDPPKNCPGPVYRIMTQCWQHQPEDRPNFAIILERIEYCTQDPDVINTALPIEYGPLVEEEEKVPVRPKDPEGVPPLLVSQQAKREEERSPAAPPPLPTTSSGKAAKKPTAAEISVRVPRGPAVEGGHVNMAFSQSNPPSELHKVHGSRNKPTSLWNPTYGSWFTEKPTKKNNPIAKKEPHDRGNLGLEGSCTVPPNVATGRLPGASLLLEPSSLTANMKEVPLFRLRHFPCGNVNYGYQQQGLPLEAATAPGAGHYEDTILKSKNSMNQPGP
Sequence of Hepatocyte growth factor receptor (P08581 whole entry): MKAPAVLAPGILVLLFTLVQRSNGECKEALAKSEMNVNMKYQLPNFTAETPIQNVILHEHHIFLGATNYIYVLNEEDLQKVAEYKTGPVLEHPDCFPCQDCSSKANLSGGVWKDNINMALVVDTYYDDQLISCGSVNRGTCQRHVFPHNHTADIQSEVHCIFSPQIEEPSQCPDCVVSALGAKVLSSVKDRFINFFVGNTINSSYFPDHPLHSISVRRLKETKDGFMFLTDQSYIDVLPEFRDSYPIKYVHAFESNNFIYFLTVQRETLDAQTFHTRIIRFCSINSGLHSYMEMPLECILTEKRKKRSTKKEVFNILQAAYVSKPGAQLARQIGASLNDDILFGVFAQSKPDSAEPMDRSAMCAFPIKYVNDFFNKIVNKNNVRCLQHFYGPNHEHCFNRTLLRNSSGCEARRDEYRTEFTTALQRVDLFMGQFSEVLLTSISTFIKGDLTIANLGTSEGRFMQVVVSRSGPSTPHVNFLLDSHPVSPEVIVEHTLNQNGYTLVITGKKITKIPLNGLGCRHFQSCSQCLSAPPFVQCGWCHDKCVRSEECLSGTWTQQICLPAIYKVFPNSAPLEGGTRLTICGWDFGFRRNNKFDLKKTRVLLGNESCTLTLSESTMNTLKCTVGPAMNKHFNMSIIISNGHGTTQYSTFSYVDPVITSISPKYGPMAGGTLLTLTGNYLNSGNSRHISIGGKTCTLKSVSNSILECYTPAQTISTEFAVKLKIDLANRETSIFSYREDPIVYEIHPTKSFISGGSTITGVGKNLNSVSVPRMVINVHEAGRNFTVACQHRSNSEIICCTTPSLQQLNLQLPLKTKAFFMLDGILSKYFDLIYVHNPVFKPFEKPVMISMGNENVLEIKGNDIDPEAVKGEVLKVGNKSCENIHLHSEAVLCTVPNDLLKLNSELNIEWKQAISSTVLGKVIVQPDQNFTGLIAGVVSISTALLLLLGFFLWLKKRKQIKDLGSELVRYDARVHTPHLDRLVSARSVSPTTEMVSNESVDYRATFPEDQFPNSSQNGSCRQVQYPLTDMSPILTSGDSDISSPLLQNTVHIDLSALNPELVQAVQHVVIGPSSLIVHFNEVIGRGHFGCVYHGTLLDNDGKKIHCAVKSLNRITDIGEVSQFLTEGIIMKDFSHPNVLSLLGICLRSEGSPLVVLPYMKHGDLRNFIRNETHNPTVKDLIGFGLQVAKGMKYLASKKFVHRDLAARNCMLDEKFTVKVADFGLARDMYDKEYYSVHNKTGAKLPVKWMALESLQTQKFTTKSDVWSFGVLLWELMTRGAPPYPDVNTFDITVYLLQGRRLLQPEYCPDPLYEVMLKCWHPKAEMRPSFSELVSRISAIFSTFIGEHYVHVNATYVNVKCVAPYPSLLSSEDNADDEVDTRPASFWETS

Compound | IC50 (HCC827) [nM] | IC50 [2] [nM] | other results
Fc1ccc(Cl)c(Sc2n[nH]c3ncc(-c4cnn(C5CCNCC5)c4)cc23)c1Cl | – | – | IC50 [1]: 14.6 nM
COCCN1CCC(C#Cc2c(Oc3ccc(NC(=O)c4ccnn(-c5ccc(F)cc5)c4=O)cc3F)ccnc2N)CC1 | < 100 | – | –
c1coc(COCC2Cc3cn4ncnc(-c5cnn(C6CCNCC6)c5)c4c3C2)c1 (configuration not stated) | – | 0.33 | IC50 (NCI-H1975): 1.3 nM; IC50 (A-431): 699 nM
CNC(=O)c1ccccc1Nc1nc(Nc2ccc3c(c2)[C@@H](C)CNCC3)ncc1Cl | – | 7.9 | IC50 [1]: 6.4 nM
CC(C)N1CCC(CC#Cc2c(Oc3ccc(NC(=O)c4cn(C(C)C)c(=O)n(-c5ccc(F)cc5)c4=O)cc3F)ccnc2N)CC1 | < 100 | – | –
C[C@@H](Oc1cc(C(=O)Nc2ccc(=O)n(C)c2)nnc1N)c1c(Cl)ccc(F)c1Cl | – | 60 | IC50 [1]: 40 nM
CC(C)n1cc(C(=O)Nc2ccc(Oc3ccnc(N)c3C#CC(=O)N3CCOCC3)c(F)c2)c(=O)n(-c2ccc(F)cc2)c1=O | < 100 | – | –
COCCN1CCC(C#Cc2c(Oc3ccc(NC(=O)c4cn(C(C)C)c(=O)n(-c5ccc(F)cc5)c4=O)cc3F)ccnc2N)CC1 | < 100 | – | –
CN1CCN(CC#Cc2c(Oc3ccc(NC(=O)c4ccnn(-c5ccc(F)cc5)c4=O)cc3F)ccnc2N)CC1 | < 100 | – | –
CC(C)n1cc(C(=O)Nc2ccc(Oc3ccnc(N)c3C#CC(C)(C)N3CCOCC3)c(F)c2)c(=O)n(-c2ccc(F)cc2)c1=O | < 100 | – | –
COCCN1CCN(C(=O)C#Cc2c(Oc3ccc(NC(=O)c4cn(C(C)C)c(=O)n(-c5ccc(F)cc5)c4=O)cc3F)ccnc2N)CC1 | < 100 | – | –
Nc1nccc(Oc2ccc(NC(=O)c3ccnn(-c4ccc(F)cc4)c3=O)cc2F)c1C#CCC1CCNCC1 | < 100 | – | IC50 [1]: 10 nM
CN1CCc2ccc(COCC3Cc4cn5ncnc(-c6cnn(C7CCNCC7)c6)c5c4C3)cc21 (configuration not stated) | – | 20.3 | IC50 (NCI-H1975): 84.3 nM; IC50 (A-431): 749 nM
Cc1nc(Cn2cc(C(=O)Nc3ccc(Oc4ccnc(N)c4C#CCC4CCN(C)CC4)c(F)c3)c(=O)n(-c3ccc(F)cc3)c2=O)cs1 | < 100 | – | –
c1ccc2oc(COCC3Cc4cn5ncnc(-c6cnn(C7CCNCC7)c6)c5c4C3)cc2c1 (configuration not stated) | – | – | IC50 (NCI-H1975): 60 nM; IC50 (A-431): > 1000 nM
N#CC1=C(N)OC2=C(c3sc(N)c(C#N)c3CC2)C1c1ccccc1 (configuration not stated) | – | – | IC50 [1]: 8.32 nM
Fc1ccc(Cl)c(COCC2Cc3cn4ncnc(-c5cnn(C6CCNCC6)c5)c4c3C2)c1Cl (configuration not stated) | – | 0.24 | IC50 (NCI-H1975): 6.21 nM; IC50 (A-431): 100 nM
COCCN1CCN(C(C)(C)C#Cc2c(Oc3ccc(NC(=O)c4cn(C(C)C)c(=O)n(-c5ccc(F)cc5)c4=O)cc3F)ccnc2N)CC1 | < 100 | – | –
Cc1c(C(=O)Nc2ccc(Oc3ccnc4cc(OCC(C)(C)O)ccc34)c(F)c2)c(=O)n(-c2ccccc2)n1C [NINGETINIB] | – | – | IC50 [1]: 33.4 nM

Second part, led by results:

IC50 (HCC827) [nM] | IC50 [2] [nM] | Compound | other results
– | 1.88 | Clc1ncccc1COCC1Cc2cn3ncnc(-c4cnn(C5CCNCC5)c4)c3c2C1 (configuration not stated) | IC50 (NCI-H1975): 39.2 nM; IC50 (A-431): > 1000 nM
– | 1.59 | c1cncc(COCC2Cc3cn4ncnc(-c5cnn(C6CCNCC6)c5)c4c3C2)c1 (configuration not stated) | IC50 (NCI-H1975): 45.2 nM; IC50 (A-431): > 1000 nM
< 100 | – | COCCN1CCN(C(=O)C#Cc2c(Oc3ccc(NC(=O)c4ccnn(-c5ccc(F)cc5)c4=O)cc3F)ccnc2N)CC1 | –
< 100 | – | CC(C)n1cc(C(=O)Nc2ccc(Oc3ccnc(N)c3C#CC(=O)N3CCNCC3)c(F)c2)c(=O)n(-c2ccc(F)cc2)c1=O | –
